Consider 1 compound from patent EP2359816B1, “Aripiprazole formulations” (Arven Ilac Sanayi ve Ticaret A.S., priority 2010, dated 2011).

The term solubility denotes the dissolved amount per volume that the medium holds.

A short description of the data set: physchem. It is filed as physicochemical. The source says: The following results were obtained in our solubility study of aripiprazole monohydrate.

Each structure is given as a SMILES string.

On to `O=C1CCc2ccc(OCCCCN3CCN(c4cccc(Cl)c4Cl)CC3)cc2N1` [aripiprazole monohydrate, 7-[4-[4-(2,3-dichlorophenyl)-1-piperazinyl]butoxy]-3,4-dihydrocarbostyril], for which the dissolved reads like this: (pH 1.2 (0.1 N NCl)) 25 mg per 250 mL; (pH 1.2 (USP buffer)) 9.75 mg per 250 mL; (pH 4.5) 8.25 mg per 250 mL; (pH 6.8) “not dissolved”. Besides, the “Cmax (mg/250 mL) (Aripiprazole)” value amounted to 8.25 mg/250 mL (pH 4.5) and 0 mg/250 mL (pH 6.8). This compound yielded a solubility (pH 4.5, aqueous buffer, Maximum Solubility (Cmax mg/mL)) of 33 µg/mL. For the setting “pH 6.8”, the “Maximum Solubility (Cmax mg/mL)” value turned out to be 0 mg/mL.
